The test system of this experiment is LPS-stimulated J774 macrophages (TSPO). Put plainly: In vitro J774 murine macrophage uptake studies (fluorescence microscopy, with or without blocking). As to conditions: 40 nM probe, 1 hour of incubation. Type of experiment: cell-based. How it is done: FIG. 4 is a series of photomicrographs (A-I) of J774 macrophages that were cultured in 8 well chamber slides to 80% confluence. LPS was then added to each well for 24 hours to stimulate the cells. […] The cells were returned to the incubator for either 1 hour or 24 hours. The solutions were then removed, the nuclei were labeled with Hoechst 33342 and the cells were briefly washed before mounting and viewing under a fluorescence microscope.
In vitro J774 murine macrophage uptake studies. The immortalized J774 murine macrophage-like cell line was cultured in RPMI1640+20% FBS+1% penicillin+ streptomycin media in 8-well chamber slides (Fisher Scientific) to approximately 80% confluence. The cells were then stimulated with 1 ng/mL of LPS (Sigma, E. coli 055:B5) for 24 hours prior to addition of the probes of the present invention to 40 nM final concentration. […] The cells were exposed to the fluorescent probes and blocking compounds for either 1 hour or 24 hours prior to exposing to 1 ng/mL of Hoechst 33342 dye (Invitrogen), followed by washing twice briefly with PBS, pH 7.5. The chambers were then removed and the slide mounted with Dako Cytomation aqueous mounting media and a glass coverslip. The cells were visualized using a Nikon 80i upright epifluorescence microscope equipped with a Nikon DS-QilMc darkfield CCD camera and processed using Nikon Image Software on an adjacent workstation. The dyes were excited using either a Nikon Intensilight C-HGFI lamp (IRDye680 and Hoechst) or a Sutter Instruments Co. (Novato, Calif.) LB/LB-30 xenon lamp (IRDye800).
J774 Cell Uptake Studies. J774 macrophages were cultured in 8 well chamber slides to 80% confluence. LPS was then added to each well for 24 hours to stimulate the cells. […] The cells were returned to the incubator for either 1 hour or 24 hours. The solutions were then removed, the nuclei were labeled with Hoechst 33342 and the cells were briefly washed before mounting and viewing under a fluorescence microscope. […] The tracer localization for both analogs is perinuclear and granular in appearance and is consistent with the gross distribution pattern of TSPO expression in other mononuclear cell-derived lines.

For `CCN(CC)C(=O)Cc1c(-c2ccc(OCCNC(=O)CCCCC[N+]3=C(/C=C/C4=C(Oc5ccc(S(=O)(=O)O)cc5)C(=C/C=C5/N(CCCCS(=O)(=O)O)c6ccc(S(=O)(=O)O)cc6C5(C)C)/CCC4)C(C)(C)c4cc(S(=O)(=O)[O-])ccc43)cc2)nn2c(C)cc(C)nc12` [DPA-713-IRDye800CW, 1-(6-(2-(4-(3-(2-(diethylamino)-2-oxoethyl)-5,7-dimethylpyrazolo[1,5-a]pyrimidin-2-yl)phenoxy)ethylamino)-6-oxohexyl)-2-((E)-2-((E)-3-((E)-2-(3,3-dimethyl-5-sulfo-1-(4-sulfobutyl)indolin-2-ylidene)ethylidene)-2-(4-sulfophenoxyl)cyclohex-1-enyl)vinyl)-3,3-dimethyl-3H-indolium-5-sulfonate], the “Observable fluorescence signal (uptake)” value is listed as “almost no observable signal”.

The values are drawn from patent US9498546B2, “Synthesis and application of novel imaging agents conjugated to DPA 713 analogs for imaging inflammation” (THE JOHNS HOPKINS UNIVERSITY, priority 2012, dated 2016).
